Assays:
Assay in all cases: cells
MPP-89 = type: functional, cell-based, Homo sapiens; conditions: Homo sapiens, MPP-89;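 further: growth inhibition of human MPP-89 cells, read out with a cell viability assay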
Description: SANGER: Inhibition of human MPP-89 cell growth in a cell viability assay.

J-RT3-T3-5 = type: functional, cell-based; conditions: Homo sapiens;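 further: cell viability assay measuring growth inhibition of human J-RT3-T3-5 cells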
Description: SANGER: Inhibition of human J-RT3-T3-5 cell growth in a cell viability assay.

HPAF-II = type: functional, cell-based, Homo sapiens; conditions: Homo sapiens, HPAF-II;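 further: growth inhibition of HPAF-II cells, read out with a cell viability assay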
Description: SANGER: Inhibition of human HPAF-II cell growth in a cell viability assay.

BT-20 = type: functional, cell-based, Homo sapiens; conditions: Homo sapiens, BT-20;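 further: cell viability assay measuring suppression of growth in human BT-20 cells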
Description: SANGER: Inhibition of human BT-20 cell growth in a cell viability assay.

MFE-280 = type: functional, cell-based, Homo sapiens; conditions: Homo sapiens, MFE-280;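 further: growth inhibition of MFE-280 cells, determined with a cell viability readout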
Description: SANGER: Inhibition of human MFE-280 cell growth in a cell viability assay.

NCI-H1092 = type: functional, cell-based; conditions: Homo sapiens;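 further: cell growth inhibition measured with a cell viability assay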
Description: SANGER: Inhibition of human NCI-H1092 cell growth in a cell viability assay.

SW684 = type: functional, cell-based, Homo sapiens; conditions: Homo sapiens, SW684;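 further: growth inhibition of human SW684 cells, measured by a cell viability assay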
Description: SANGER: Inhibition of human SW684 cell growth in a cell viability assay.

NKM-1 = type: functional, cell-based; conditions: Homo sapiens;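 further: growth inhibition of NKM-1 cells, read out with a cell viability assay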
Description: SANGER: Inhibition of human NKM-1 cell growth in a cell viability assay.

MSTO-211H = type: functional, cell-based, Homo sapiens; conditions: Homo sapiens, MSTO-211H
Description: SANGER: Inhibition of human MSTO-211H cell growth in a cell viability assay.

HSC-2 = type: functional, cell-based, Homo sapiens; conditions: Homo sapiens, HSC-2;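 further: growth inhibition of human HSC-2 cells, read out by a cell viability assay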
Description: SANGER: Inhibition of human HSC-2 cell growth in a cell viability assay.

LXF-289 cell line = type: functional, cell-based, Homo sapiens; conditions: Homo sapiens, LXF-289
Description: SANGER: Inhibition of human LXF-289 cell growth in a cell viability assay.

MHH-NB-11 = type: functional, cell-based, Homo sapiens; conditions: Homo sapiens, MHH-NB-11;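 further: growth inhibition of human MHH-NB-11 cells, read out by a cell viability assay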
Description: SANGER: Inhibition of human MHH-NB-11 cell growth in a cell viability assay.

CAL-54 = type: functional, cell-based, Homo sapiens; conditions: Homo sapiens, CAL-54;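 further: growth inhibition of CAL-54 cells, read out by a viability measurement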
Description: SANGER: Inhibition of human CAL-54 cell growth in a cell viability assay.

HT = type: functional, cell-based; conditions: Homo sapiens
Description: SANGER: Inhibition of human HT cell growth in a cell viability assay.

YAPC = type: functional, cell-based, Homo sapiens; conditions: Homo sapiens, YAPC;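 further: growth inhibition of YAPC cells, measured with a cell viability assay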
Description: SANGER: Inhibition of human YAPC cell growth in a cell viability assay.

SK-UT-1 = type: functional, cell-based, Homo sapiens; conditions: Homo sapiens, SK-UT-1;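 further: growth inhibition of SK-UT-1 cells, measured by a cell viability assay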
Description: SANGER: Inhibition of human SK-UT-1 cell growth in a cell viability assay.

CP50-MEL-B = type: functional, cell-based, Homo sapiens; conditions: Homo sapiens, CP50-MEL-B;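 further: growth inhibition of the human cell line, measured with a cell viability read-out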
Description: SANGER: Inhibition of human CP50-MEL-B cell growth in a cell viability assay.

SCH = type: functional, cell-based, Homo sapiens; conditions: Homo sapiens, SCH;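 further: growth inhibition of human SCH cells, read out in a cell viability assay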
Description: SANGER: Inhibition of human SCH cell growth in a cell viability assay.

SF-539 = type: functional, cell-based, Homo sapiens; conditions: Homo sapiens, SF-539;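 further: Read-out is a cell viability assay, with IC50 reflecting inhibition of cell growth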
Description: SANGER: Inhibition of human SF539 cell growth in a cell viability assay.

RPMI-8866 = type: functional, cell-based; conditions: Homo sapiens
Description: SANGER: Inhibition of human RPMI-8866 cell growth in a cell viability assay.

769-P = type: functional, cell-based, Homo sapiens; conditions: Homo sapiens, 769-P
Description: SANGER: Inhibition of human 769-P cell growth in a cell viability assay.

TGBC1TKB = type: functional, cell-based, Homo sapiens; conditions: Homo sapiens, TGBC1TKB;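 further: growth inhibition of TGBC1TKB cells, read out by a cell viability assay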
Description: SANGER: Inhibition of human TGBC1TKB cell growth in a cell viability assay.

SCC-15 = type: functional, cell-based, Homo sapiens; conditions: Homo sapiens, SCC-15;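 further: growth inhibition of SCC-15 cells, read out with a cell viability assay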
Description: SANGER: Inhibition of human SCC-15 cell growth in a cell viability assay.

MOLT-16 = type: functional, cell-based; conditions: Homo sapiens;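 further: growth inhibition of human MOLT-16 cells, read out with a cell viability assay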
Description: SANGER: Inhibition of human MOLT-16 cell growth in a cell viability assay.

NCI-H1355 = type: functional, cell-based, Homo sapiens; conditions: Homo sapiens, NCI-H1355;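 further: growth inhibition of human NCI-H1355 cells, read out by a cell viability assay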
Description: SANGER: Inhibition of human NCI-H1355 cell growth in a cell viability assay.

TCC-SUP = type: functional, cell-based, Homo sapiens; conditions: Homo sapiens, TCC-SUP;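 further: growth inhibition of TCC-SUP cells, read out with a cell viability assay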
Description: SANGER: Inhibition of human TCCSUP cell growth in a cell viability assay.

NOMO-1 = type: functional, cell-based; conditions: Homo sapiens;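 further: growth inhibition of human NOMO-1 cells measured by a cell viability assay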
Description: SANGER: Inhibition of human NOMO-1 cell growth in a cell viability assay.

OVCAR-5 = type: functional, cell-based, Homo sapiens; conditions: Homo sapiens, OVCAR-5;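 further: growth inhibition of human OVCAR-5 cells, read out with a cell viability assay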
Description: SANGER: Inhibition of human OVCAR-5 cell growth in a cell viability assay.

SW1088 = type: functional, cell-based, Homo sapiens; conditions: Homo sapiens, SW1088;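 further: growth inhibition of human SW1088 cells, read out by a cell viability assay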
Description: SANGER: Inhibition of human SW1088 cell growth in a cell viability assay.

NCI-H650 = type: functional, cell-based, Homo sapiens; conditions: Homo sapiens, NCI-H650;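 further: growth inhibition of NCI-H650 cells, read out by a viability assay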
Description: SANGER: Inhibition of human NCI-H650 cell growth in a cell viability assay.

TE-6 = type: functional, cell-based, Homo sapiens; conditions: Homo sapiens, TE-6;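 further: growth inhibition of TE-6 cells, read out with a cell viability assay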
Description: SANGER: Inhibition of human TE-6 cell growth in a cell viability assay.

ME-180 = type: functional, cell-based; conditions: Homo sapiens;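 further: cell viability assay measuring growth inhibition of ME-180 cells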
Description: SANGER: Inhibition of human ME-180 cell growth in a cell viability assay.

MS-1 = type: functional, cell-based; conditions: Homo sapiens;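 further: growth inhibition of MS-1 cells, read out by cell viability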
Description: SANGER: Inhibition of human MS-1 cell growth in a cell viability assay.

Calu-6 = type: functional, cell-based, Homo sapiens; conditions: Homo sapiens, Calu-6;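 further: growth of human Calu-6 cells, read out by a cell viability assay, IC50 marking inhibition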
Description: SANGER: Inhibition of human Calu-6 cell growth in a cell viability assay.

BXPC-3 = type: functional, cell-based, Homo sapiens; conditions: Homo sapiens, BXPC-3;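 further: growth inhibition of human BxPC-3 cells, read out by a cell viability assay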
Description: SANGER: Inhibition of human BxPC-3 cell growth in a cell viability assay.

VMRC-RCZ = type: functional, cell-based; conditions: Homo sapiens;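 further: growth inhibition measured with a cell viability assay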
Description: SANGER: Inhibition of human VMRC-RCZ cell growth in a cell viability assay.

NUGC-3 = type: functional, cell-based, Homo sapiens; conditions: Homo sapiens, NUGC-3;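 further: growth inhibition of human NUGC-3 cells, read out with a cell viability assay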
Description: SANGER: Inhibition of human NUGC-3 cell growth in a cell viability assay.

KYSE-180 = type: functional, cell-based, Homo sapiens; conditions: Homo sapiens, KYSE-180;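 further: growth inhibition of KYSE-180 cells, read out with a cell viability assay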
Description: SANGER: Inhibition of human KYSE-180 cell growth in a cell viability assay.

HT-144 = type: functional, cell-based, Homo sapiens; conditions: Homo sapiens, HT-144
Description: SANGER: Inhibition of human HT-144 cell growth in a cell viability assay.

NCI-H1838 = type: functional, cell-based, Homo sapiens; conditions: Homo sapiens, NCI-H1838;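 further: growth inhibition of NCI-H1838 cells, determined with a cell viability readout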
Description: SANGER: Inhibition of human NCI-H1838 cell growth in a cell viability assay.

TE-5 = type: functional, cell-based, Homo sapiens; conditions: Homo sapiens, TE-5;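 further: inhibition of cell growth, read out by a cell viability assay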
Description: SANGER: Inhibition of human TE-5 cell growth in a cell viability assay.

JEG-3 = type: functional, cell-based, Homo sapiens; conditions: Homo sapiens, JEG-3;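 further: growth inhibition of human JEG-3 cells, read out with a cell viability assay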
Description: SANGER: Inhibition of human JEG-3 cell growth in a cell viability assay.

CAPAN-1 = type: functional, cell-based, Homo sapiens; conditions: Homo sapiens, CAPAN-1;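 further: growth suppression of CAPAN-1 cells, read out by a cell viability assay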
Description: SANGER: Inhibition of human CAPAN-1 cell growth in a cell viability assay.

U-251 = type: functional, cell-based, Homo sapiens; conditions: Homo sapiens, U-251;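 further: growth inhibition of human U-251 cells, read out through a cell viability assay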
Description: SANGER: Inhibition of human U251 cell growth in a cell viability assay.

BPH-1 = type: functional, cell-based, Homo sapiens; conditions: Homo sapiens, BPH-1;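 further: cell viability assay measuring growth inhibition of human BPH-1 cells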
Description: SANGER: Inhibition of human BPH-1 cell growth in a cell viability assay.

SAOS-2 = type: functional, cell-based, Homo sapiens; conditions: Homo sapiens, SAOS-2;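 further: growth inhibition of human Saos-2 cells determined by a cell viability assay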
Description: SANGER: Inhibition of human Saos-2 cell growth in a cell viability assay.

FTC-133 = type: functional, cell-based, Homo sapiens; conditions: Homo sapiens, FTC-133
NCI-H2170 = type: functional, cell-based, Homo sapiens; conditions: Homo sapiens, NCI-H2170;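 further: cell viability assay measuring growth inhibition of human NCI-H2170 cancer cells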
Description: SANGER: Inhibition of human NCI-H2170 cell growth in a cell viability assay.

LCLC-97TM1 = type: functional, cell-based, Homo sapiens; conditions: Homo sapiens, LCLC-97TM1;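 further: cell viability assay measuring growth inhibition of human LCLC-97TM1 cells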
Description: SANGER: Inhibition of human LCLC-97TM1 cell growth in a cell viability assay.

MZ2-MEL = type: functional, cell-based, Homo sapiens; conditions: Homo sapiens, MZ2-MEL;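 further: growth inhibition of MZ2-MEL cells read out with a cell viability assay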
Description: SANGER: Inhibition of human MZ2-MEL cell growth in a cell viability assay.

With `O=C(NOCC1CC1)c1ccc(F)c(F)c1Nc1ccc(I)cc1Cl` [CI-1040] the IC50 (MPP-89) was > 10000 nM, the IC50 (J-RT3-T3-5) was > 10000 nM and the IC50 (HPAF-II) was 3750 nM. For the same compound, the IC50 (BT-20) was > 10000 nM, the IC50 (MFE-280) was 6860 nM and the IC50 (NCI-H1092) was > 10000 nM. For the same compound, the IC50 (SW684) was > 10000 nM, the IC50 (NKM-1) was > 10000 nM and the IC50 (MSTO-211H) was 9960 nM. The IC50 (HSC-2) was > 10000 nM, the IC50 (LXF-289 cell line) was > 10000 nM and the IC50 (MHH-NB-11) was 6850 nM. For the same compound, the IC50 (CAL-54) was 5030 nM, the IC50 (HT) was > 10000 nM and the IC50 (YAPC) was > 10000 nM. The IC50 (SK-UT-1) was 8980 nM, the IC50 (CP50-MEL-B) was 173 nM and the IC50 (SCH) was > 10000 nM. The IC50 (SF-539) was > 10000 nM, the IC50 (RPMI-8866) was 6210 nM and the IC50 (769-P) was > 10000 nM. The IC50 (TGBC1TKB) was 7890 nM, the IC50 (SCC-15) was > 10000 nM and the IC50 (MOLT-16) was > 10000 nM. The IC50 (NCI-H1355) was 7590 nM, the IC50 (TCC-SUP) was > 10000 nM and the IC50 (NOMO-1) was 257 nM. The IC50 (OVCAR-5) was 1780 nM, the IC50 (SW1088) was 6920 nM and the IC50 (NCI-H650) was > 10000 nM. For the same compound, the IC50 (TE-6) was > 10000 nM, the IC50 (ME-180) was 5580 nM and the IC50 (MS-1) was 8880 nM. The IC50 (Calu-6) was 6800 nM, the IC50 (BXPC-3) was > 10000 nM and the IC50 (VMRC-RCZ) was > 10000 nM. For the same compound, the IC50 (NUGC-3) was 5490 nM, the IC50 (KYSE-180) was > 10000 nM and the IC50 (HT-144) was 647 nM. The IC50 (NCI-H1838) was > 10000 nM, the IC50 (TE-5) was 8420 nM and the IC50 (JEG-3) was > 10000 nM. The IC50 (CAPAN-1) was > 10000 nM, the IC50 (U-251) was > 10000 nM and the IC50 (BPH-1) was 1900 nM. The IC50 (SAOS-2) was > 10000 nM, the IC50 (FTC-133) was > 10000 nM and the IC50 (NCI-H2170) was > 10000 nM. For the same compound, the IC50 (LCLC-97TM1) was 1920 nM and the IC50 (MZ2-MEL) was 2110 nM.
With `Nc1ccn([C@@H]2O[C@H](CO)[C@@H](O)[C@@H]2O)c(=O)n1` [CYTARABINE] the IC50 (MPP-89) was 1310 nM, the IC50 (J-RT3-T3-5) was 68.4 nM and the IC50 (HPAF-II) was > 2000 nM. For the same compound, the IC50 (BT-20) was > 2000 nM, the IC50 (MFE-280) was > 2000 nM and the IC50 (NCI-H1092) was > 2000 nM. The IC50 (SW684) was > 2000 nM, the IC50 (NKM-1) was 1060 nM and the IC50 (MSTO-211H) was 324 nM. For the same compound, the IC50 (HSC-2) was 1460 nM, the IC50 (LXF-289 cell line) was 251 nM and the IC50 (MHH-NB-11) was 728 nM. The IC50 (CAL-54) was 940 nM, the IC50 (HT) was > 2000 nM and the IC50 (YAPC) was > 2000 nM. For the same compound, the IC50 (SK-UT-1) was 181 nM, the IC50 (CP50-MEL-B) was > 2000 nM and the IC50 (SCH) was > 2000 nM. It also gave an IC50 (SF-539) of 717 nM, an IC50 (RPMI-8866) of 740 nM and an IC50 (769-P) of 228 nM. For the same compound, the IC50 (TGBC1TKB) was > 2000 nM, the IC50 (SCC-15) was 1080 nM and the IC50 (MOLT-16) was 36.1 nM. For the same compound, the IC50 (NCI-H1355) was 556 nM, the IC50 (TCC-SUP) was > 2000 nM and the IC50 (NOMO-1) was > 2000 nM. For the same compound, the IC50 (OVCAR-5) was 220 nM, the IC50 (SW1088) was > 2000 nM and the IC50 (NCI-H650) was > 2000 nM. The IC50 (TE-6) was > 2000 nM, the IC50 (ME-180) was > 2000 nM and the IC50 (MS-1) was > 2000 nM. For the same compound, the IC50 (Calu-6) was > 2000 nM, the IC50 (BXPC-3) was > 2000 nM and the IC50 (VMRC-RCZ) was 1350 nM. It also gave an IC50 (NUGC-3) of 589 nM, an IC50 (KYSE-180) of 565 nM and an IC50 (HT-144) of 1230 nM. For the same compound, the IC50 (NCI-H1838) was > 2000 nM, the IC50 (TE-5) was 381 nM and the IC50 (JEG-3) was 431 nM. The IC50 (CAPAN-1) was > 2000 nM, the IC50 (U-251) was 1130 nM and the IC50 (BPH-1) was > 2000 nM. For the same compound, the IC50 (SAOS-2) was 682 nM, the IC50 (FTC-133) was 1390 nM and the IC50 (NCI-H2170) was > 2000 nM. The IC50 (LCLC-97TM1) was 477 nM and the IC50 (MZ2-MEL) was 1430 nM.

— ChEMBL document CHEMBL1201861, “Genomics of Drug Sensitity in Cancer screening data, Wellcome Trust Sanger Institute”
